Article PMC6863825, “Modulating multi-functional ERK complexes by covalent targeting of a recruitment site in vivo” (Nature Communications, 2019)

Target: T1, ERK2 (Rattus norvegicus, UniProt P63086)
T1 construct: gene Mapk1; full-length ERK2
Experiment: fluorescence anisotropy displacement of FITC D-site peptide; also protein NMR, intact MS, kinact/Ki
Type: binding

T1 sequence (P63086 2-358): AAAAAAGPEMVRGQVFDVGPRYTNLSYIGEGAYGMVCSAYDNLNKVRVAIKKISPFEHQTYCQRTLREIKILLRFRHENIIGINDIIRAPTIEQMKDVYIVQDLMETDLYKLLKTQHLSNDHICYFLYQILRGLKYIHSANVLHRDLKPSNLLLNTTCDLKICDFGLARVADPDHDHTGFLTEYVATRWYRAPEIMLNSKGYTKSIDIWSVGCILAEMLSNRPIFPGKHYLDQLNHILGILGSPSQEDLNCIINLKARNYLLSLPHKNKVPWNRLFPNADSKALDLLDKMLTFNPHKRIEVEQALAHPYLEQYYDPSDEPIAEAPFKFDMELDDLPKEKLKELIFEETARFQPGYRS

Ki: 800 ± 200 nM
Structure (SMILES): O=[N+]([O-])c1cnc(Sc2nnc(O)n2-c2ccc3c(c2)OCCO3)s1 [compound 1, BI-78D3]
